Experimental data as given in patent publication US11312769B2, “Anti-TMEFF1 antibodies and antibody drug conjugates” (Bluefin BioMedicine, Inc., priority 2017, dated 2022).

How the values were obtained:
[1] = system: H526 cells; experiment: Growth inhibition and isobologram/combination index, H526; assay type: cell-based, human; details: for IC50: H526, 5 days, alone; for effect of combination with 30C10-PBD: H526 cells
Protocol: (§1) Two SCLC cell lines H526 and H1048, which expresses ˜2,500 copies of TMEFF1 on the cell surface per cell, were seeded onto 96 well plates at 2,000 cells/well on the day of treatment. To distinguish synergy from additivity of the combination of 30C10-PBD with niraparib (selleckchem, Cat # S2741), etoposide (Cell Signaling Technology, Cat #2200S) or cisplatin (Sigma, Cat # P4394), for each combination, a specific isobologram was constructed and the combination-index was calculated as described by Chou, TC and Talalay P (Quanttative analysis of dose-effect relationships: the combined effects of multiple drugs or enzyme inhibitors, Adv Enzyme Regul, 1984). IC50 value was defined as the drug concentration reducing by 50% the growth of treated cells compared with control. IC50 values of each drug was determined by plating H526 or H1048 cells and adding 30C10-PBD, niraparib, etoposide or cisplatin at 10-fold dilutions spanning their probable range of activity. Concentrations ranging from 0.0001-1 ug/ml were used for 30C10-PBD, from 0.01 to 100 uM for Niraparib, from 0.001-10 uM for etoposide and from 0.01-100 uM for cisplatin. Cell viability was measured 5 days later by CellTiter Glo® Luminescent Cell viability Assay™ (Promega, Madison, Wis.) according to manufacturer's instructions. Each IC50 was graphically derived from the growth curve graphed by Prism™ showing percent survival vs log drug concentrations.
(§2) Combination-index (CI) was defined as follows: CI=[C]A50/IC50A+[C]B50/IC50B, where [C]A50 and [C]B50 are the concentrations in combination inducing the IC50 effect. A CI of less than, equal to, or more than 1 indicates, respectively, synergy, additivity, or antagonism.
(§3) The 50% growth-inhibitory activity of the drug combinations was measured after 5 days of treatment. The line of additivity for the isobologram was constructed by interpolating the two points corresponding to the IC50 of the two drugs alone. Graphically, synergy, additivity, and antagonism are indicated by a point plotted below, on, or above the line of additivity, respectively.

[2] = system: H1048 cells; experiment: Growth inhibition and isobologram/combination index, H1048; assay type: cell-based, human; details: for IC50: H1048, 5 days, alone; for effect of combination with 30C10-PBD: H1048 cells
Protocol: as §1, §2, §3

[3] = H526, combination with 30C10-PBD 0.3 ng/ml
[4] = H526, combination with 30C10-PBD 0.6 ng/ml
[5] = H1048, combination with 30C10-PBD 0.1 ng/ml
[6] = H1048, combination with 30C10-PBD 0.3 ng/ml

Structure (SMILES)	IC50 [1]	CI [1, 3]	effect [1, 3]	CI [1, 4]	effect [1, 4]	effect of combination with 30C10-PBD [1]	IC50 [2]	CI [2, 5]	effect [2, 5]	CI [2, 6]	effect [2, 6]	effect of combination with 30C10-PBD [2]	effect ([2]; H1048, combination with 30C10-PBD 0.1 ng/ml, listed as etoposide)	effect ([2]; H1048, combination with 30C10-PBD 0.3 ng/ml, listed as etoposide)	IC50 ([1]; Homo sapiens, NCI-H526, 120 h)	IC50 ([2]; Homo sapiens, NCI-H1048, 120 h)
N.N.[Cl][Pt][Cl] [Cisplatin, cisplatin]	0.24 µM	0.865	synergy (A CI of less than, equal to, or more than 1 indicates, respectively, synergy, additivity, or antagonism)	0.703	synergy (A CI of less than, equal to, or more than 1 indicates, respectively, synergy, additivity, or antagonism)	synergistic effects	0.62 µM	0.985	additive	1.008	additive	additive effects	–	–	–	–
COc1cc([C@@H]2c3cc4c(cc3[C@@H](O[C@@H]3O[C@@H]5CO[C@@H](C)O[C@H]5[C@H](O)[C@H]3O)[C@H]3COC(=O)[C@H]23)OCO4)cc(OC)c1O [Etoposide, etoposide]	0.33 µM	0.847	synergy (A CI of less than, equal to, or more than 1 indicates, respectively, synergy, additivity, or antagonism)	0.801	synergy (A CI of less than, equal to, or more than 1 indicates, respectively, synergy, additivity, or antagonism)	synergistic effect	0.16 µM	0.932	synergy (A CI of less than, equal to, or more than 1 indicates, respectively, synergy, additivity, or antagonism)	0.998	additive	–	synergistic effect	additive effect	–	–
NC(=O)c1cccc2cn(-c3ccc([C@@H]4CCCNC4)cc3)nc12 [Niraparib, niraparib]	–	0.762	synergy (A CI of less than, equal to, or more than 1 indicates, respectively, synergy, additivity, or antagonism)	0.619	synergy (A CI of less than, equal to, or more than 1 indicates, respectively, synergy, additivity, or antagonism)	Synergistic effect	–	0.949	synergy (A CI of less than, equal to, or more than 1 indicates, respectively, synergy, additivity, or antagonism)	0.888	synergy (A CI of less than, equal to, or more than 1 indicates, respectively, synergy, additivity, or antagonism)	Synergistic effect	–	–	3.24 µM	1.07 µM
